Test results as given in patent US12662498B2 (priority 2017, dated 2026).

Experiments:
[1] = Heat cycling slurry maturation of Psilocybin Pattern A in 24 solvents (visual solubility)
[2] = ICH stability study of psilocybin batches (appearance, water content, purity, assay); conditions: 2-8° C., 25° C./60% RH and 40° C./75% RH
Hygroscopicity = format: physicochemical; conditions: high humidity / added to water
Source text: (§1) The psilocybin of the invention in the form Polymorph A or A′ has the general properties illustrated in Table 5 below: […]

Solubility in water = format: physicochemical
Source text: as §1

[3] = Heat cycling slurry maturation of amorphous Psilocybin (visual solubility, form fate); format: physicochemical; conditions: for Obs. at 20° C. / Obs. at 45° C. / Obs. at 50° C.: 20 vol.; for Obs. at 45° C.: 45° C. for 18 hours; for Obs. at 50° C.: 50° C. for 8 hours; for XRPD Data (form fate): solid isolated after heat cycling slurry maturation
Protocol: In order to generate amorphous material a small sample of Psilocybin (0.5 g) was dissolved in water (0.5 L, 1000 vol.), polish filtered and lyophilised. Psilocybin was recovered as an off white fibrous material (lot MC1368A; 412 mg, 82%, XRPD amorphous).
To assess visually solubility of the amorphous API and to induce form modification, a series of slurry maturations were performed as follows:
Psilocybin (15 mg) was charged to tubes. Solvent was then added at ambient temperature (20° C., 0.3 ml, 20 vol.) and the suspensions agitated. Observations were made. After 1 hour of stirring, samples were heated to 45° C. for 18 hours and observations made. Samples were heated to 50° C. for 8 hours and observations were made. The samples were agitated for 72 hours at 25° C. and subject to a final heat cycle, prior to isolation.

SMILES: CN(C)CCc1c[nH]c2cccc(OP(=O)(O)O)c12 [Psilocybin, 3-[2-(dimethylazaniumyl) Ethyl]-1H-indol-4-yl Hydrogen Phosphate]
- solubility in the solvents and solvent mixtures tested ([1]; 30 volumes at 50° C.): largely insoluble
- solubility in water ([1]; Water, 50° C.): did solubilise
- chemical stability over the first 12 months of the ICH stability study [2]: chemically stable
- Hygroscopicity (Hygroscopicity): Psilocybin forms Hydrate A at high
- solubility (Solubility in water): ~15 mg/mL

SMILES: CN(C)CCc1c[nH]c2cccc(OP(=O)(O)O)c12 [amorphous Psilocybin]
- Obs. at 20° C. ([3]; 4:1 EtOH/water): Susp.
- Obs. at 45° C. ([3]; 4:1 EtOH/water): Susp.
- Obs. at 50° C. ([3]; 4:1 EtOH/water): Susp.
- Obs. at 20° C. ([3]; 4:1 IPA/water): Susp.
- Obs. at 45° C. ([3]; 4:1 IPA/water): Susp.
- Obs. at 50° C. ([3]; 4:1 IPA/water): Susp.
- Obs. at 20° C. ([3]; 4:1 THF/water): Susp.
- Obs. at 45° C. ([3]; 4:1 THF/water): Susp.
- Obs. at 50° C. ([3]; 4:1 THF/water): Susp.
- Obs. at 20° C. ([3]; Acetonitrile): Susp.
- Obs. at 45° C. ([3]; Acetonitrile): Susp.
- Obs. at 50° C. ([3]; Acetonitrile): Susp.
- XRPD Data (form fate) ([3]; Acetonitrile): Amorphous
- Obs. at 20° C. ([3]; Anisole): Susp.
- Obs. at 45° C. ([3]; Anisole): Susp.
- Obs. at 50° C. ([3]; Anisole): Susp.
- XRPD Data (form fate) ([3]; Anisole): Semi-crystalline
- Obs. at 20° C. ([3]; Benzotrifluoride): Susp.
- Obs. at 45° C. ([3]; Benzotrifluoride): Susp.
- Obs. at 50° C. ([3]; Benzotrifluoride): Susp.
- XRPD Data (form fate) ([3]; Benzotrifluoride): Semi-crystalline
- Obs. at 20° C. ([3]; CPME): Susp.
- Obs. at 45° C. ([3]; CPME): Susp.
- Obs. at 50° C. ([3]; CPME): Susp.
- XRPD Data (form fate) ([3]; CPME): Semi-crystalline
- Obs. at 20° C. ([3]; Chlorobenzene): Susp.
- Obs. at 45° C. ([3]; Chlorobenzene): Susp.
- Obs. at 50° C. ([3]; Chlorobenzene): Susp.
- XRPD Data (form fate) ([3]; Chlorobenzene): Semi-crystalline
- Obs. at 20° C. ([3]; Chlorobutane): Susp.
- Obs. at 45° C. ([3]; Chlorobutane): Susp.
- Obs. at 50° C. ([3]; Chlorobutane): Susp.
- XRPD Data (form fate) ([3]; Chlorobutane): Pattern B
- Obs. at 20° C. ([3]; Chloroform): Susp.
- Obs. at 45° C. ([3]; Chloroform): Susp.
- Obs. at 50° C. ([3]; Chloroform): Susp.
- Obs. at 20° C. ([3]; Cyclohexane): Susp.
- Obs. at 45° C. ([3]; Cyclohexane): Susp.
- Obs. at 50° C. ([3]; Cyclohexane): Susp.
- XRPD Data (form fate) ([3]; Cyclohexane): Semi-crystalline
- Obs. at 20° C. ([3]; EtOAc): Susp.
- Obs. at 45° C. ([3]; EtOAc): Susp.
- Obs. at 50° C. ([3]; EtOAc): Susp.
- XRPD Data (form fate) ([3]; EtOAc): Semi-crystalline
- Obs. at 20° C. ([3]; EtOH): Susp.
- Obs. at 45° C. ([3]; EtOH): Susp.
- Obs. at 50° C. ([3]; EtOH): Susp.
- XRPD Data (form fate) ([3]; EtOH): Pattern D
- Obs. at 20° C. ([3]; Heptane): Susp.
- Obs. at 45° C. ([3]; Heptane): Susp.
- Obs. at 50° C. ([3]; Heptane): Susp.
- XRPD Data (form fate) ([3]; Heptane): Semi-crystalline
- Obs. at 20° C. ([3]; IPA): Susp.
- Obs. at 45° C. ([3]; IPA): Susp.
- Obs. at 50° C. ([3]; IPA): Susp.
- XRPD Data (form fate) ([3]; IPA): Pattern B
- Obs. at 20° C. ([3]; MEK): Susp.
- Obs. at 45° C. ([3]; MEK): Susp.
- Obs. at 50° C. ([3]; MEK): Susp.
- XRPD Data (form fate) ([3]; MEK): Semi-crystalline
- Obs. at 20° C. ([3]; MIBK): Susp.
- Obs. at 45° C. ([3]; MIBK): Susp.
- Obs. at 50° C. ([3]; MIBK): Susp.
- XRPD Data (form fate) ([3]; MIBK): Semi-crystalline
- Obs. at 20° C. ([3]; MeOH): Susp.
- Obs. at 45° C. ([3]; MeOH): Susp.
- Obs. at 50° C. ([3]; MeOH): Susp.
- XRPD Data (form fate) ([3]; MeOH): Semi-crystalline
- Obs. at 20° C. ([3]; Nitromethane): Susp.
- Obs. at 45° C. ([3]; Nitromethane): Susp.
- Obs. at 50° C. ([3]; Nitromethane): Susp.
- XRPD Data (form fate) ([3]; Nitromethane): Pattern B
- Obs. at 20° C. ([3]; TBME): Susp
- Obs. at 45° C. ([3]; TBME): Susp.
- Obs. at 50° C. ([3]; TBME): Susp.
- XRPD Data (form fate) ([3]; TBME): Semi-crystalline
- Obs. at 20° C. ([3]; THF): Susp.
- Obs. at 45° C. ([3]; THF): Susp.
- Obs. at 50° C. ([3]; THF): Susp.
- XRPD Data (form fate) ([3]; THF): Semi-crystalline
- Obs. at 20° C. ([3]; Toluene): Susp.
- Obs. at 45° C. ([3]; Toluene): Susp.
- Obs. at 50° C. ([3]; Toluene): Susp.
- Obs. at 20° C. ([3]; Water): Susp.
- Obs. at 45° C. ([3]; Water): Susp.
- Obs. at 50° C. ([3]; Water): Susp.
- Obs. at 20° C. ([3]; iPrOAc): Susp.
- Obs. at 45° C. ([3]; iPrOAc): Susp.
- Obs. at 50° C. ([3]; iPrOAc): Susp.
- XRPD Data (form fate) ([3]; iPrOAc): Semi-crystalline
